Assay [1] concerns the target T1, GIRK1/4(VT-IV) (Homo sapiens, UniProt P48544+P48549, T94V/V92I).
T1 construct: expressed in transfected cells; host or cells: Xenopus laevis oocytes (cRNA injection)
T1 sequence (P48549 1-501): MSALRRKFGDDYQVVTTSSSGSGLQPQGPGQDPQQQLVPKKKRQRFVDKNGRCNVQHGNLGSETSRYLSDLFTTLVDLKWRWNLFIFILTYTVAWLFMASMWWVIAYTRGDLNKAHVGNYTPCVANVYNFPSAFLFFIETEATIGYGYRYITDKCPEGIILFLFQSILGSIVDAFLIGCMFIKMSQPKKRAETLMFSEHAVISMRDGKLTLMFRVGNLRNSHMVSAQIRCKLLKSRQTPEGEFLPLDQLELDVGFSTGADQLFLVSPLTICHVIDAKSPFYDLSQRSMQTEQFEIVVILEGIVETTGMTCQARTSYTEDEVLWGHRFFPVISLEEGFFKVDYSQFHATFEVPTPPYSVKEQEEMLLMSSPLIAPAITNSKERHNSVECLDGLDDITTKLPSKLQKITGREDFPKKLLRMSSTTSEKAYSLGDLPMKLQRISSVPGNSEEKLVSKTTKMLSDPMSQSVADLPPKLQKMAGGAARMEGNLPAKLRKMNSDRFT
T1 sequence (P48544 1-419 V92I/T94V): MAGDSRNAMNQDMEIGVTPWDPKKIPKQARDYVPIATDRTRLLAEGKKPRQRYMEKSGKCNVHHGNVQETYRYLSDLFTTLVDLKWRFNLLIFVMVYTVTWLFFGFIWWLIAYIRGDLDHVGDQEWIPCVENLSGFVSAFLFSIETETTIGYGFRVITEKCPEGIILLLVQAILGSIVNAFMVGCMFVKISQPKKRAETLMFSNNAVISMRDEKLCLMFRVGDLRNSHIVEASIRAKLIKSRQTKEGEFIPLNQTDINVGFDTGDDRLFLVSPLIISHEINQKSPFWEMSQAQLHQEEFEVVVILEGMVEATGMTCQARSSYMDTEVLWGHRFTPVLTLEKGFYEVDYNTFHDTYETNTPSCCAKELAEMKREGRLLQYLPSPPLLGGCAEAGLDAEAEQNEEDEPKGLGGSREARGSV
Briefly: TEVC in Xenopus oocytes, double mutant GIRK1/4(VT-IV). Type of assay: cell-based. Conditions: GIRK1/4(VT-IV) double mutant. The text has this:
(§1) Molecular biology: For Xenopus oocyte expression, human GIRK1 and human GIRK4 cDNAs were subcloned into pGEMHE. For mammalian expression, human GIRK1 and human GIRK4 cDNAs were subcloned into pcDNA3 and pcDNA3.1/V5-His B, respectively (Invitrogen). Mouse GIRK2 cDNA was subcloned in the dual-function vector, pXoom. Point mutations were introduced using a standard Pfu-based mutagenesis technique according to the QuikChange protocol (Agilent). Mutations were verified by sequencing.
(§2) Electrophysiology of oocytes: Whole-oocyte currents were measured by conventional two-electrode voltage clamp (TEVC) with a GeneClamp 500 amplifier (Axon Instruments). Agarose cushion microelectrodes were filled with 1.5% (w/v) agarose in 3 M KCl and were used with resistances between 0.1 and 1.5 megaohms. […] Barium-sensitive basal currents from both groups, 1) Vehicle, 2) single concentration at 10 μM and 3) multiple concentrations of ML297 or GAT compounds in the presence of HK solution, were assessed at −80 mV using TEVC. Barium-sensitive currents were normalized to average basal current in the vehicle solutions. The HK solution contained the following: 96 mM KCl, 1 mM NaCl, 1 mM MgCl2, 5 mM KOH/HEPES, pH 7.4. The barium solution consisted of HK+10 mM BaCl2. Five to ten oocytes from the same batch (same frog) were recorded for each group, and the experiments were repeated in at least four batches. Data acquisition and analysis were carried out using pClamp9 (Molecular Devices) and OriginPro (Microcal) software.
(§3) To test these computational predictions, the inventors mutated each or both of the two M1 key wild-type GIRK4 subunit residues to the corresponding GIRK2 residues (GIRK4-V92I, GIRK4-T94V, GIRK4-V92I/T94V or GIRK4-dm) and vice-versa the GIRK2 residues to the corresponding GIRK4 ones (GIRK2-I97V, GIRK2-V99T, GIRK2-I97V/V99T or GIRK2-dm) (FIG. 35). […]

Assay [2] addresses T2, GIRK1/4(T-V) (Homo sapiens, UniProt P48544+P48549, T94V).
T2 construct: expressed in transfected cells; host or cells: Xenopus laevis oocytes (cRNA injection)
T2 sequence (P48549 1-501): T1 sequence (P48549 1-501)
T2 sequence (P48544 1-419 T94V): T1 sequence (P48544 1-419 V92I/T94V) with I92V
Briefly: TEVC in Xenopus oocytes, single mutant GIRK1/4(T-V). Type of assay: cell-based. Conditions: GIRK1/4(T-V) single mutant.
Description: as §1, §2, §3

The mark [3] stands for this setting: read-out: EMAX, % of the control GIRK1/2.

Positions count from the first letter of the chain named.

We go through one compound from patent US12351574B2, “Selective ligands for modulation of GIRK channels” (Northeastern University, priority 2018, dated 2025).

In general, EC50 refers to the concentration giving half of the maximal effect.

As for `Cc1cc(NC(=O)Nc2ccc(Br)s2)n(-c2ccccc2)n1` [GAT1508, 1-(5-bromothiophen-2-yl)-3-(3-methyl-1-phenyl-1H-pyrazol-5-yl)urea], the figures for the half-maximal effective concentration (EC50) in assay [1] and in assay [2] were 550 ± 110 nM and 500 ± 470 nM, respectively. The EMAX in assay [1] came out at 1.76±0.03; in assay [2], 1.12±0.03. Besides, the Emax in assay [1] (setting [3]) was 75%; in assay [2] (setting [3]) it was 7%.
